Data as given in ChEMBL document CHEMBL5380799, “Comprehensive Peptide Cyclization Examination Yields Optimized APP Scaffolds with Improved Affinity toward Mint2” (J Med Chem, 2023).
One block for each molecule: values may come before it. *1 amine or outer side, *2 acyl side, *3 side chain or, on linkers, in order; H or OH if unused. Where a SMILES comes first, the peptide text is derived from it. Bridges are numbered along the chain shown (N, C = ends). Triazole bridges read from a SMILES are 1,4-linked. [ ]: non-standard residue; d: D form. The star is where a group is joined. Perfluorobiphenyl(4,4') = Fc1c(F)c([*:1])c(F)c(F)c1-c1c(F)c(F)c([*:2])c(F)c1F; Pyridine(2,6-diCH2) = c1cc(C[*:1])nc(C[*:2])c1; Lys(N3) = [N-]=[N+]=NCCCC[C@H](N)C(=O)O; NH(CH2CH2O)2(CH2)6Cl = ClCCCCCCOCCOCCN*; Orn(N3) = [N-]=[N+]=NCCC[C@H](N)C(=O)O; pXylylene = c1cc(C[*:2])ccc1C[*:1]; S8 = C=CCCCCCC[C@](C)(N)C(=O)O; Suc = O=C(CCC(=O)[*:2])[*:1]; S5 = C=CCCC[C@](C)(N)C(=O)O; Hpra = C#CCC[C@H](N)C(=O)O; Pra = C#CC[C@H](N)C(=O)O

Tests used:
[1] = Binding affinity to N-terminal hexahistidine-tagged recombinant human Mint2-PARM (364 to 570 residues) in presence of probe [(TAMRA)-NNG-QNGYENPTYKFFEQMQN] by fluorescense polarization assay
[2] = tested on: Streptomyces griseus protease; experiment: Stability of compound in PBS at pH 7.4 assessed as Streptomyces griseus protease mediated degradation by measuring half life at 100 uM measured after 120 mins by RP UPLC analysis; assay type: ADME
proteinase K = proteinase K (Engyodontium album, UniProt P06873); experiment: Stability of compound in PBS at pH 7.4 assessed as Parengyodontium album proteinase K mediated degradation by measuring half life at 100 uM measured after 120 mins by RP UPLC analysis; assay type: ADME
trypsin = experiment: Stability of compound in PBS at pH 7.4 assessed as bovine pancreas trypsin mediated degradation by measuring half life at 100 uM measured after 120 mins by RP UPLC analysis; assay type: ADME, tissue-based, Bos taurus; conditions: cattle
[3] = Drug uptake in human HeLa cells assessed as drug penetration incubated for 4 hrs by CA-TAMRA based CAPA assay; assay type: ADME, cell-based
[4] = Metabolic stability in human plasma assessed as half life at 500 uM incubated for 480 mins by RP UPLC analysis; assay type: ADME, cell-free
[5] = Binding affinity to N-terminal hexahistidine-tagged recombinant human Mint2-PARM (364 to 570 residues) by ITC method
Homo sapiens = species on record: Homo sapiens; experiment: Binding affinity to N-terminal hexahistidine-tagged recombinant human Mint2-PARM (364 to 570 residues) assessed as change in entropy by ITC method
SH-SY5Y = experiment: Cytotoxicity against human SH-SY5Y cells assessed as reduction in cell viability at 100 uM incubated for 48 hrs by MTT assay; assay type: toxicity, cell-based

proteinase K, sequence (P06873 whole entry): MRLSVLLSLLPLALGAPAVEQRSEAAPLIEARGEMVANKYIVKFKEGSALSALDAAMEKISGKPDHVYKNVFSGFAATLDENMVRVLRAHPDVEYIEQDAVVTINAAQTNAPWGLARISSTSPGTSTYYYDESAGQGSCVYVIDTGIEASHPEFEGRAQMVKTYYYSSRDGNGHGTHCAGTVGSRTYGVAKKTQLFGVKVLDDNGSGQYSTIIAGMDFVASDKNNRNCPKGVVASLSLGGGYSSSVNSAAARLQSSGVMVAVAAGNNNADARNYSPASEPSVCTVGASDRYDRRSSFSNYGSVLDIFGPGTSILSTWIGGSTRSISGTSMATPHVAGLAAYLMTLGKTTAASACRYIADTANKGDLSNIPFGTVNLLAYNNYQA

Molecule: NCCCC[C@@H]1NC(=O)[C@H](Cc2ccc(O)cc2)NC(=O)[C@@H](NC(=O)[C@@H]2CCCN2C(=O)[C@H](CC(N)=O)NC(=O)[C@H](CCC(=O)O)NC(=O)[C@H](Cc2ccc(O)cc2)NC(=O)CNC(=O)[C@@H](N)CC(N)=O)CCSCc2ccc(cc2)CSCC[C@@H](C(=O)N[C@@H](CCC(=O)O)C(=O)O)NC(=O)[C@H](Cc2ccccc2)NC1=O
Ki [1]: 0.3 µM
half-life at 100 µM [2]: > 2 h
half-life at 100 µM (proteinase K): > 2 h
half-life at 100 µM (trypsin): > 2 h
EC50 [3]: 14.5 µM
half-life at 500 µM [4]: 1.5 h
Kd [5]: 1.04 µM

Molecule: C[C@@]1(C(=O)N[C@@H](CCC(=O)O)C(=O)O)CCC/C=C\CCC[C@](C)(NC(=O)[C@@H]2CCCN2C(=O)[C@H](CC(N)=O)NC(=O)[C@H](CCC(=O)O)NC(=O)[C@@H](Cc2ccc(O)cc2)NC(=O)CNC(=O)[C@H](N)CC(N)=O)C(=O)N[C@@H](Cc2ccc(O)cc2)C(=O)N[C@@H](CCCCN)C(=O)N[C@@H](Cc2ccccc2)C(=O)N1
Ki [1]: 0.5 µM
TdeltaS (Homo sapiens): -1.44 kcal/mol
half-life at 100 µM [2]: > 2 h
half-life at 100 µM (proteinase K): > 2 h
half-life at 100 µM (trypsin): > 2 h
EC50 [3]: 33.3 µM
half-life at 500 µM [4]: 2.02 h
Kd [5]: 0.24 µM

Molecule: C[C@@]1(C(=O)N[C@H](CCC(=O)O)C(=O)O)CCC/C=C\CCC[C@](C)(NC(=O)[C@@H]2CCCN2C(=O)[C@H](CC(N)=O)NC(=O)[C@H](CCC(=O)O)NC(=O)[C@H](Cc2ccc(O)cc2)NC(=O)CNC(=O)[C@H](CC(N)=O)NC(=O)CCC(=O)NCCOCCOCCCCCCCl)C(=O)N[C@@H](Cc2ccc(O)cc2)C(=O)N[C@@H](CCCCN)C(=O)N[C@@H](Cc2ccccc2)C(=O)N1
EC50 [3]: 77.9 µM

Molecule: NCCCC[C@@H]1NC(=O)[C@H](Cc2ccc(O)cc2)NC(=O)[C@@H](NC(=O)[C@@H]2CCCN2C(=O)[C@H](CC(N)=O)NC(=O)[C@H](CCC(=O)O)NC(=O)[C@H](Cc2ccc(O)cc2)NC(=O)CNC(=O)[C@H](CC(N)=O)NC(=O)CCC(=O)NCCOCCOCCCCCCCl)CCSCc2ccc(cc2)CSCC[C@@H](C(=O)N[C@H](CCC(=O)O)C(=O)O)NC(=O)[C@H](Cc2ccccc2)NC1=O
EC50 [3]: 14.5 µM

Molecule: NCCCC[C@H](NC(=O)[C@H](Cc1ccc(O)cc1)NC(=O)[C@H](CS)NC(=O)[C@@H]1CCCN1C(=O)[C@H](CC(N)=O)NC(=O)[C@H](CCC(=O)O)NC(=O)[C@H](Cc1ccc(O)cc1)NC(=O)CNC(=O)[C@@H](N)CC(N)=O)C(=O)N[C@@H](Cc1ccccc1)C(=O)N[C@@H](CS)C(=O)N[C@@H](CCC(=O)O)C(=O)O (H-NGYENPCYKFCE-OH)
Ki [1]: 21.4 µM

Molecule: NCCCC[C@@H]1NC(=O)[C@H](Cc2ccc(O)cc2)NC(=O)[C@@H](NC(=O)[C@@H]2CCCN2C(=O)[C@H](CC(N)=O)NC(=O)[C@H](CCC(=O)O)NC(=O)[C@H](Cc2ccc(O)cc2)NC(=O)CNC(=O)[C@@H](N)CC(N)=O)CSCc2ccc(cc2)CSC[C@@H](C(=O)N[C@@H](CCC(=O)O)C(=O)O)NC(=O)[C@H](Cc2ccccc2)NC1=O (H-NGYENPCYKFCE-OH; linker 7-11 via pXylylene)
Ki [1]: 0.4 µM

Molecule: H-NGYENPTYKFFE-OH
Ki [1]: 4 µM
half-life at 100 µM (trypsin): 0.43 h
Activity (SH-SY5Y): 20%

The next lines start with the values.

Ki [1]: 214 µM
Molecule: NCCCC[C@H]1NC(=O)[C@@H](Cc2ccc(O)cc2)NC(=O)[C@H](NC(=O)[C@@H]2CCCN2C(=O)[C@@H](CC(N)=O)NC(=O)[C@H](CCC(=O)O)NC(=O)[C@H](Cc2ccc(O)cc2)NC(=O)CNC(=O)[C@H](N)CC(N)=O)CC(=O)NCC[C@H](C(=O)N[C@H](CCC(=O)O)C(=O)O)NC(=O)[C@@H](Cc2ccccc2)NC1=O

TdeltaS (Homo sapiens): -2.03 kcal/mol
Molecule: NCCCC[C@@H]1NC(=O)[C@H](Cc2ccc(O)cc2)NC(=O)[C@@H](NC(=O)[C@H]2CCCN2C(=O)[C@H](CC(N)=O)NC(=O)[C@@H](CCC(=O)O)NC(=O)[C@@H](Cc2ccc(O)cc2)NC(=O)CNC(=O)[C@@H](N)CC(N)=O)CCSCc2ccc(cc2)CSCC[C@@H](C(=O)N[C@@H](CCC(=O)O)C(=O)O)NC(=O)[C@H](Cc2ccccc2)NC1=O

Ki [1]: 0.9 µM
Molecule: NCCCC[C@@H]1NC(=O)[C@H](Cc2ccc(O)cc2)NC(=O)[C@@H](NC(=O)[C@@H]2CCCN2C(=O)[C@H](CC(N)=O)NC(=O)[C@H](CCC(=O)O)NC(=O)[C@H](Cc2ccc(O)cc2)NC(=O)CNC(=O)[C@@H](N)CC(N)=O)CSc2c(F)c(F)c(c(F)c2F)-c2c(F)c(F)c(c(F)c2F)SC[C@@H](C(=O)N[C@@H](CCC(=O)O)C(=O)O)NC(=O)[C@H](Cc2ccccc2)NC1=O (H-NGYENPCYKFCE-OH; linker 7-11 via Perfluorobiphenyl(4,4'))

Ki [1]: 6.5 µM
Molecule: NCCCC[C@@H]1NC(=O)[C@H](Cc2ccc(O)cc2)NC(=O)[C@@H](NC(=O)[C@@H]2CCCN2C(=O)[C@H](CC(N)=O)NC(=O)[C@H](CCC(=O)O)NC(=O)[C@H](Cc2ccc(O)cc2)NC(=O)CNC(=O)[C@@H](N)CC(N)=O)CSCc2cccc(n2)CSC[C@@H](C(=O)N[C@@H](CCC(=O)O)C(=O)O)NC(=O)[C@H](Cc2ccccc2)NC1=O (H-NGYENPCYKFCE-OH; linker 7-11 via Pyridine(2,6-diCH2))

Ki [1]: 1 µM
half-life at 100 µM [2]: 0.45 h
half-life at 100 µM (proteinase K): > 2 h
half-life at 100 µM (trypsin): > 2 h
EC50 [3]: 77.9 µM
half-life at 500 µM [4]: 1.18 h
Kd [5]: 5.77 µM
Molecule: NCCCC[C@@H]1NC(=O)[C@H](Cc2ccc(O)cc2)NC(=O)[C@@H](NC(=O)[C@@H]2CCCN2C(=O)[C@H](CC(N)=O)NC(=O)[C@H](CCC(=O)O)NC(=O)[C@H](Cc2ccc(O)cc2)NC(=O)CNC(=O)[C@@H](N)CC(N)=O)CCCCNC(=O)C[C@@H](C(=O)N[C@@H](CCC(=O)O)C(=O)O)NC(=O)[C@H](Cc2ccccc2)NC1=O (H-NGYENPKYKFDE-OH; lactam 7-11)

Ki [1]: 1.2 µM
half-life at 100 µM [2]: 0.333 h
half-life at 100 µM (proteinase K): 0.467 h
half-life at 100 µM (trypsin): > 2 h
EC50 [3]: 42.9 µM
half-life at 500 µM [4]: 0.675 h
Kd [5]: 1 µM
Molecule: NCCCC[C@@H]1NC(=O)[C@H](Cc2ccc(O)cc2)NC(=O)[C@@H](NC(=O)[C@@H]2CCCN2C(=O)[C@H](CC(N)=O)NC(=O)[C@H](CCC(=O)O)NC(=O)[C@H](Cc2ccc(O)cc2)NC(=O)CNC(=O)[C@@H](N)CC(N)=O)CCCCn2cc(nn2)C[C@@H](C(=O)N[C@@H](CCC(=O)O)C(=O)O)NC(=O)[C@H](Cc2ccccc2)NC1=O (H-NGYENP[Lys(N3)]YKF[Pra]E-OH; triazole 7-11)

Ki [1]: 64.6 µM
Molecule: NCCCC[C@@H]1NC(=O)[C@H](Cc2ccc(O)cc2)NC(=O)[C@@H](NC(=O)[C@@H]2CCCN2C(=O)[C@H](CC(N)=O)NC(=O)[C@H](CCC(=O)O)NC(=O)[C@H](Cc2ccc(O)cc2)NC(=O)CNC(=O)[C@@H](N)CC(N)=O)CCCn2cc(nn2)CC[C@@H](C(=O)N[C@@H](CCC(=O)O)C(=O)O)NC(=O)[C@H](Cc2ccccc2)NC1=O (H-NGYENP[Orn(N3)]YKF[Hpra]E-OH; triazole 7-11)

Ki [1]: 0.8 µM
Molecule: C[C@@]1(C(=O)N[C@@H](CCC(=O)O)C(=O)O)CCCCCC/C=C/CCC[C@](C)(NC(=O)[C@@H]2CCCN2C(=O)[C@H](CC(N)=O)NC(=O)[C@H](CCC(=O)O)NC(=O)[C@H](Cc2ccc(O)cc2)NC(=O)CNC(=O)[C@@H](N)CC(N)=O)C(=O)N[C@@H](Cc2ccc(O)cc2)C(=O)N[C@@H](CCCCN)C(=O)N[C@@H](Cc2ccccc2)C(=O)N1 (H-NGYENP[S5]YKF[S8]E-OH; staple (E) 7-11)

Ki [1]: 2.3 µM
Molecule: C[C@@]1(C(=O)N[C@@H](CCC(=O)O)C(=O)O)CCC/C=C\CCCCCC[C@](C)(NC(=O)[C@@H]2CCCN2C(=O)[C@H](CC(N)=O)NC(=O)[C@H](CCC(=O)O)NC(=O)[C@H](Cc2ccc(O)cc2)NC(=O)CNC(=O)[C@@H](N)CC(N)=O)C(=O)N[C@@H](Cc2ccc(O)cc2)C(=O)N[C@@H](CCCCN)C(=O)N[C@@H](Cc2ccccc2)C(=O)N1 (H-NGYENP[S8]YKF[S5]E-OH; staple (Z) 7-11)

EC50 [3]: 42 µM
Molecule: C[C@@H](O)[C@H](NC(=O)[C@@H]1CCCN1C(=O)[C@H](CC(N)=O)NC(=O)[C@H](CCC(=O)O)NC(=O)[C@H](Cc1ccc(O)cc1)NC(=O)CNC(=O)[C@H](CC(N)=O)NC(=O)CCC(=O)NCCOCCOCCCCCCCl)C(=O)N[C@@H](Cc1ccc(O)cc1)C(=O)N[C@@H](CCCCN)C(=O)N[C@@H](Cc1ccccc1)C(=O)N[C@@H](Cc1ccccc1)C(=O)N[C@@H](CCC(=O)O)C(=O)O ({NH(CH2CH2O)2(CH2)6Cl-Suc}-NGYENPTYKFFE-OH)
